For 9 compounds, Activity results are on record in ChEMBL document CHEMBL3045033, “Synthesis of new potential anticancer agents based on 4-thiazolidinone and oleanane scaffolds” (Med Chem Res, 2012).

Format in all cases: functional
For test [1], the system named is PC-3. Briefly: Cytotoxicity against Homo sapiens (human) PC3 cells assessed as cellular growth at 10^-5 M after 48 hr by SRB assay relative to untreated control. (In general: Sulforhodamine B stains cellular protein and so reports cell mass.)
Test [2] relates to T47D. In words: Cytotoxicity against Homo sapiens (human) T47D cells assessed as cellular growth at 10^-5 M after 48 hr by SRB assay relative to untreated control.
Test [3] has as its system SR. In words: Cytotoxicity against Homo sapiens (human) SR cells assessed as cellular growth at 10^-5 M after 48 hr by SRB assay relative to untreated control.
Test [4] has as its system CCRF-CEM. Briefly: Cytotoxicity against Homo sapiens (human) CCRF-CEM cells assessed as cellular growth at 10^-5 M after 48 hr by SRB assay relative to untreated control.
Test [5] relates to SF-295. In words: Cytotoxicity against Homo sapiens (human) SF295 cells assessed as cellular growth at 10^-5 M after 48 hr by SRB assay relative to untreated control.
Test [6] deals with BT-549. Briefly: Cytotoxicity against Homo sapiens (human) BT549 cells assessed as cellular growth at 10^-5 M after 48 hr by SRB assay relative to untreated control.
Test [7] deals with IGROV-1. Briefly: Cytotoxicity against Homo sapiens (human) IGROV1 cells assessed as cellular growth at 10^-5 M after 48 hr by SRB assay relative to untreated control.
In test [8] the test system is K562. In words: Cytotoxicity against Homo sapiens (human) K562 cells assessed as cellular growth at 10^-5 M after 48 hr by SRB assay relative to untreated control.
Test [9] deals with RPMI-8226. In words: Cytotoxicity against Homo sapiens (human) RPMI8226 cells assessed as cellular growth at 10^-5 M after 48 hr by SRB assay relative to untreated control.
Test [10] relates to HL-60(TB). Briefly: Cytotoxicity against Homo sapiens (human) HL-60(TB) cells assessed as cellular growth at 10^-5 M after 48 hr by SRB assay relative to untreated control.
The subject of test [11] is SK-OV-3. In words: Cytotoxicity against Homo sapiens (human) SKOV3 cells assessed as cellular growth at 10^-5 M after 48 hr by SRB assay relative to untreated control.
The subject of test [12] is COLO 205. In words: Cytotoxicity against Homo sapiens (human) COLO205 cells assessed as cellular growth at 10^-5 M after 48 hr by SRB assay relative to untreated control.

Consider `COC(=O)[C@]12CCC(C)(C)C[C@H]1C1=CC[C@@H]3[C@@]4(C)CCC(=O)C(C)(C)[C@@H]4CC[C@@]3(C)[C@]1(C)CC2`, for which the results for the Activity in [1], in test [2] and in [3] were 85.25%, 75.65% and 63.87%, respectively.
As for `COC(=O)[C@]12CCC(C)(C)C[C@H]1C1=CC[C@@H]3[C@@]4(C)CC/C(=N\OC(=O)CN5C(=O)CSC5=S)C(C)(C)[C@@H]4CC[C@@]3(C)[C@]1(C)CC2`, in test [4], the Activity turned out to be 56.34%.
As to `COC(=O)[C@]12CCC(C)(C)C[C@H]1C1=CC[C@@H]3[C@@]4(C)CC/C(=N\OC(=O)CCCCCN5C(=O)CSC5=S)C(C)(C)[C@@H]4CC[C@@]3(C)[C@]1(C)CC2`, the Activity in test [2] is 76.91%; in [3], 42.83%.
Take `COC(=O)[C@]12CCC(C)(C)C[C@H]1C1=CC[C@@H]3[C@@]4(C)CC/C(=N\OC(=O)CN5C(=O)/C(=C/c6ccc(OC)cc6)SC5=S)C(C)(C)[C@@H]4CC[C@@]3(C)[C@]1(C)CC2`: the values for the Activity in test [5] and in test [6] were 72.97% and 67.36%, respectively.
Regarding `COC(=O)[C@]12CCC(C)(C)C[C@H]1C1=CC[C@@H]3[C@@]4(C)CC/C(=N\OC(=O)CCN5C(=O)/C(=C/c6ccc(N(C)C)cc6)SC5=S)C(C)(C)[C@@H]4CC[C@@]3(C)[C@]1(C)CC2`, the Activity in test [7] is listed as 82.21%.
On to `CC1(C)CC[C@]2(C(=O)O)CC[C@]3(C)C(=CC[C@@H]4[C@@]5(C)CC/C(=N\OC(=O)CC6SC(=O)NC6=O)C(C)(C)[C@@H]5CC[C@]43C)[C@@H]2C1` (some centres undefined), for which the Activity in test [8] is listed as 54.55%; in test [3], 54.18%.
Take `CC1(C)CC[C@]2(C(=O)N3CCOCC3)CC[C@]3(C)C(=CC[C@@H]4[C@@]5(C)CC/C(=N\OC(=O)CC6SC(=O)NC6=O)C(C)(C)[C@@H]5CC[C@]43C)[C@@H]2C1` (some centres undefined): the Activity in [9] came to 21.46%; in test [10], 42.47%; in [2] it was 29.41%; in test [3], 48.74%.
In the case of `CC1(C)CC[C@@]23CC[C@]4(C)[C@@](OC2=O)([C@@H]3C1)[C@@H](Br)C[C@@H]1[C@@]2(C)CC/C(=N\OC(=O)/C=C3/SC(=O)NC3=O)C(C)(C)[C@@H]2CC[C@]14C`, the Activity is given as 26.82% in test [9]; 26.14% in test [10]; 27.12% in [8]; 24.85% in test [2]; 29.41% in test [3].
Take `CC1(C)CC[C@@]23CC[C@]4(C)[C@@](OC2=O)([C@@H]3C1)[C@@H](Br)C[C@@H]1[C@@]2(C)CCC(=O)C(C)(C)[C@@H]2CC[C@]14C`: the Activity in test [5] is 270.75%; in test [11] it was 335.31%; in test [12], 302.68%; in [8], 78.11%.
